# Experimental data as given in US9695219B2, “Polypeptide having antibacterial activity and angiogenesis-inducing activity and wound-healing drug containing said polypeptide” (priority 2009, dated 2017).
# Where a SMILES comes first, the peptide text is derived from it. [ ]: non-standard residue; d: D form.
# Tested on: Normal human dermal fibroblasts (NHDFs)
# Format: cell-based
# Method: Next, the effect of these polypeptides on the growth of human umbilical vein endothelial cells (HUVECs) was studied. A cell growth activity of the polypeptides was examined using Cell Counting Kit (WST-1) available from Dojindo Laboratories. As a negative control (Control), polypeptide-free group was used. Cells (human umbilical vein endothelial cells: HUVECs) were plated in a 96-well plate (0.5×10^4 cells/well/100 μL, serum 1%). About 3 hours after plating the cells, the polypeptides (1, 3, 10, 30 or 100 μg/ml) and FGF (100 ng/ml) as a positive control were individually added thereto in an amount of 100 μL. To the unstimulated group, only a medium was added in an amount of 100 μL. The plate was left to stand in a CO2 incubator for about 48 hours. Thereafter, WST-1 reagent was added to each well in an amount of 20 μL, and then the plate was left to stand in a CO2 incubator for about 2 hours. Absorbances at wavelengths of 450 nm and 620 nm were measured using Wallac 1420 ARVOsx (Program: WST-1). A value of O.D.450-O.D.620 was calculated for each measurement. […] The cell growth activity was evaluated on the basis of the ratio of Net O.D.450 of polypeptide-containing groups relative to Net O.D.450 of the unstimulated group.
# Then, the effect on the growth of normal human dermal fibroblasts (NHDFs) was also studied by the same method as described above.
structure (smiles),measurement,value
CC[C@H](C)[C@H](NC(=O)[C@H](CC(C)C)NC(=O)[C@H](CCCCN)NC(=O)[C@@H](N)CC(C)C)C(=O)N[C@@H](Cc1ccccc1)C(=O)N[C@@H](CC(C)C)C(=O)N[C@@H](Cc1c[nH]cn1)C(=O)N[C@@H](CCCNC(=N)N)C(=O)N[C@@H](CC(C)C)C(=O)N[C@@H](CCCCN)C(=O)N[C@@H](CCCNC(=N)N)C(=O)N[C@@H](CCSC)C(=O)N[C@@H](CCCNC(=N)N)C(=O)N[C@@H](CCCCN)C(=O)N[C@@H](CCCNC(=N)N)C(=O)N[C@@H](CC(C)C)C(=O)N[C@H](CCCCN)C(=O)N[C@@H](CCCNC(=N)N)C(=O)N[C@@H](CCCCN)C(N)=O [SR-08] (H-LKLIFLHRLKRMRKRL[dK]RK-NH2; N-terminus assumed),"Concentration above which the polypeptide tended to exhibit toxicity, NHDFs (FIG. 4)",> 30 µg/mL
